DBAASP
Converted amounts (≈) assume the structure as drawn. One block for each compound: values may come before it.

Experiments:
Test in all cases: ≥ marks a high value that may be exact or a test limit, other limits are often not marked, values filed in µg/mL are converted to µM
[1] = test system: Candida albicans DBFIQ 1
[2] = test system: Candida albicans PEEC 2
[3] = test system: Candida tropicalis DBFIQ 3
[4] = test system: Enterococcus faecalis ATCC 29212
[5] = test system: Escherichia coli ATCC 35218
[6] = test system: Pseudomonas aeruginosa ATCC 27853
[7] = test system: Staphylococcus aureus ATCC 25923
[8] = test system: Staphylococcus aureus BSF FBCB1313
[9] = test system: Acinetobacter baumannii ATCC 7978
[10] = test system: Candida albicans ATCC 10231
[11] = test system: Enterococcus faecium E007
[12] = test system: Staphylococcus aureus ATCC 29231
[13] = test system: Aeromonas salmonicida
[14] = test system: Pseudomonas aeruginosa K799
[15] = test system: Pseudomonas aeruginosa Z61
[16] = test system: Salmonella enterica serovar typhimurium MS7953s
[17] = test system: Salmonella enterica subsp. enterica serovar Typhimurium ATCC 14028s
[18] = test system: Staphylococcus epidermidis C621
[19] = test system: Vibrio anguillarum
[20] = test system: Achromobacter xylosoxidans
[21] = test system: Candida albicans
[22] = test system: Escherichia coli UB1005
[23] = test system: Pseudomonas aeruginosa M1251
[24] = test system: Pseudomonas aeruginosa M1426
[25] = test system: Pseudomonas aeruginosa M76
[26] = test system: Pseudomonas aeruginosa M917
[27] = test system: Pseudomonas aeruginosa PAO1
[28] = test system: Pseudomonas aeruginosa R70
[29] = test system: Pseudomonas fluorescens
[30] = test system: Ralstonia pickettii
[31] = test system: Salmonella enterica serovar Typhimurium
[32] = test system: Staphylococcus aureus
[33] = test system: Stenotrophomonas maltophilia
[34] = test system: Bacillus subtilis DELTA
[35] = test system: Candida parapsilosis
[36] = test system: Escherichia coli DH5alpha
[37] = test system: Zymomonas mobilis ATCC 10988
[38] = test system: Escherichia coli
[39] = test system: Staphylococcus aureus ATCC BAA-1683
[40] = test system: Escherichia coli ATCC 25922
[41] = test system: Salmonella enterica subsp. enterica serovar Enteritidis
[42] = test system: Salmonella sp.
[43] = test system: Staphylococcus aureus ATCC 29213
[44] = test system: Staphylococcus aureus ATCC 43300
[45] = test system: Yersinia enterocolitica
[46] = test system: Cryptococcus neoformans ATCC 32264

MIC [1]: ≥ 122 µM
MIC [2]: ≥ 122 µM
MIC [3]: ≥ 122 µM
MIC [4]: 15.2 µM (≈ 16 µg/mL)
MIC [5]: 7.6 µM (≈ 7.98 µg/mL)
MIC [6]: 60.9 µM (≈ 64 µg/mL)
MIC [7]: 7.6 µM (≈ 7.98 µg/mL)
MIC [8]: 30.5 µM (≈ 32 µg/mL)
Structure (SMILES): CC(C)C[C@H](NC(=O)[C@H](CCCCN)NC(=O)[C@H](CCCCN)NC(=O)[C@H](Cc1ccccc1)NC(=O)[C@H](CC(C)C)NC(=O)[C@@H](N)CCCCN)C(=O)N[C@@H](Cc1ccccc1)C(=O)N[C@@H](CCCCN)C(N)=O [KLFKKLFK]

MIC [9]: ≥ 53.7 µM
MIC [10]: 26.8 µM (≈ 64 µg/mL)
MIC [11]: ≥ 53.7 µM
MIC [12]: 3.35 µM (≈ 7.99 µg/mL)
Structure (SMILES): CC[C@H](C)[C@H](NC(=O)[C@H](CCCCN)NC(=O)[C@H](Cc1c[nH]c2ccccc12)NC(=O)[C@H](Cc1c[nH]c2ccccc12)NC(=O)[C@@H](NC(=O)[C@H](CCCCN)NC(=O)[C@H](Cc1c[nH]c2ccccc12)NC(=O)[C@@H](N)CC(C)C)[C@@H](C)CC)C(=O)N[C@@H](Cc1c[nH]c2ccccc12)C(=O)N[C@@H](CCCN=C(N)N)C(=O)N[C@H](C(=O)N[C@@H](Cc1c[nH]c2ccccc12)C(=O)N[C@@H](CCCCN)C(=O)N[C@@H](CC(N)=O)C(=O)N[C@@H](Cc1c[nH]c2ccccc12)C(=O)N[C@@H](CCCN=C(N)N)C(=O)O)C(C)C [LWKIWWKIWRVWKNWR]

MIC [13]: 0.335 µM (≈ 1 µg/mL)
MIC [14]: 1.34 µM (≈ 4 µg/mL)
MIC [15]: 2.68 µM (≈ 8 µg/mL)
MIC [16]: 0.167 µM (≈ 0.5 µg/mL)
MIC [17]: 1.34 µM (≈ 4 µg/mL)
MIC [18]: 1.34 µM (≈ 4 µg/mL)
MIC [19]: 1.34 µM (≈ 4 µg/mL)
Structure (SMILES): CSCC[C@H](NC(=O)[C@@H](NC(=O)[C@H](CCCCN)NC(=O)[C@H](Cc1c[nH]c2ccccc12)NC(=O)[C@H](CC(C)C)NC(=O)[C@H](C)N)[C@@H](C)O)C(=O)N[C@@H](CC(C)C)C(=O)N[C@@H](CCCCN)C(=O)N[C@@H](CCCCN)C(=O)N[C@@H](C)C(=O)N[C@@H](C)C(=O)N[C@@H](Cc1cnc[nH]1)C(=O)N[C@H](C(=O)NCC(=O)N[C@@H](CCCCN)C(=O)N[C@@H](Cc1cnc[nH]1)C(=O)N[C@H](C(=O)NCC(=O)N[C@@H](CCCCN)C(=O)N[C@@H](C)C(=O)N[C@@H](C)C(=O)N[C@@H](CC(C)C)C(=O)N[C@H](C(=O)N[C@@H](Cc1cnc[nH]1)C(=O)N[C@@H](Cc1ccc(O)cc1)C(=O)N[C@@H](CC(C)C)C(=O)N[C@@H](CC(N)=O)C(=O)O)[C@@H](C)O)C(C)C)C(C)C [ALWKTMLKKAAHVGKHVGKAALTHYLN]

MIC [20]: 1.35 µM (≈ 4 µg/mL)
MIC [21]: > 43.3 µM
MIC [22]: 0.677 µM (≈ 2 µg/mL)
MIC [23]: 0.677 µM (≈ 2 µg/mL)
MIC [24]: 1.35 µM (≈ 4 µg/mL)
MIC [25]: 1.35 µM (≈ 4 µg/mL)
MIC [26]: 10.8 µM (≈ 32 µg/mL)
MIC [27]: 1.35 µM (≈ 4 µg/mL)
MIC [28]: 0.677 µM (≈ 2 µg/mL)
MIC [29]: 0.677 µM (≈ 2 µg/mL)
MIC [30]: 0.677 µM (≈ 2 µg/mL)
MIC [31]: 1.35 µM (≈ 4 µg/mL)
MIC [32]: > 43.3 µM
MIC [33]: 0.338 µM (≈ 1 µg/mL)
Structure (SMILES): CC[C@H](C)[C@H](NC(=O)[C@H](Cc1ccccc1)NC(=O)[C@H](CO)NC(=O)[C@H](CCCCN)NC(=O)[C@H](Cc1c[nH]c2ccccc12)NC(=O)[C@@H](N)CCCCN)C(=O)N[C@@H](CCCCN)C(=O)N[C@@H](CCCCN)C(=O)N[C@@H](CC(C)C)C(=O)N[C@H](C(=O)N[C@@H](CCCCN)C(=O)N[C@@H](C)C(=O)N[C@@H](C)C(=O)N[C@@H](CCCCN)C(=O)N[C@@H](CCCCN)C(=O)N[C@H](C(=O)N[C@H](C(=O)N[C@H](C(=O)N[C@H](C(=O)N[C@@H](C)C(=O)N[C@@H](CCCCN)C(=O)N[C@@H](CCCCN)C(=O)N1CCC[C@H]1C(=O)N[C@@H](CC(C)C)C(=O)N[C@H](C(=O)N[C@H](C(N)=O)C(C)C)[C@@H](C)CC)[C@@H](C)O)[C@@H](C)O)C(C)C)C(C)C)[C@@H](C)O [KWKSFIKKLTKAAKKVVTTAKKPLIV]

MIC [34]: ≥ 57.7 µM
MIC [35]: 23.1 µM (≈ 40.9 µg/mL)
MIC [36]: ≥ 57.7 µM
MIC [27]: 11.5 µM (≈ 20.5 µg/mL)
MIC [37]: 28.8 µM (≈ 51.2 µg/mL)
Structure (SMILES): CC[C@H](C)[C@H](NC(=O)[C@H](CCCN=C(N)N)NC(=O)[C@H](CCC(N)=O)NC(=O)[C@H](CC(C)C)NC(=O)[C@@H](NC(=O)[C@H](CCCN=C(N)N)NC(=O)[C@H](CCCCN)NC(=O)[C@H](Cc1ccccc1)NC(C)=O)[C@@H](C)CC)C(=O)N[C@@H](CCCCN)C(=O)N[C@@H](CC(=O)O)C(=O)N[C@@H](Cc1ccccc1)C(=O)N[C@@H](CC(C)C)C(=O)N[C@@H](CCCN=C(N)N)C(N)=O [FKRILQRIKDFLR]

MIC [38]: 347 µM (≈ 500 µg/mL)
MIC [7]: 86.6 µM (≈ 125 µg/mL)
MIC [39]: ≥ 86.6 µM
Structure (SMILES): CC(C)C[C@H](NC(=O)[C@H](CC(C)C)NC(=O)[C@H](CCCN=C(N)N)NC(=O)[C@H](CCCCN)NC(=O)[C@H](CCCCN)NC(=O)[C@@H](N)CCC(=O)O)C(=O)N[C@@H](CCCCN)C(=O)N[C@@H](Cc1c[nH]c2ccccc12)C(=O)N[C@@H](Cc1c[nH]c2ccccc12)C(=O)N[C@@H](CCCN=C(N)N)C(N)=O [EKKRLLKWWR]

MIC [40]: > 50 µM
MIC [38]: > 50 µM
MIC [6]: > 50 µM
MIC [41]: ≥ 50 µM
MIC [42]: ≥ 50 µM
MIC [43]: > 50 µM
MIC [44]: > 50 µM
MIC [45]: ≥ 50 µM
Structure (SMILES): CC[C@H](C)[C@H](NC(=O)[C@H](CCC(N)=O)NC(=O)[C@@H](N)CCCN=C(N)N)C(=O)N[C@@H](Cc1c[nH]c2ccccc12)C(=O)N[C@@H](CCCN=C(N)N)C(=O)N[C@@H](Cc1c[nH]c2ccccc12)C(=O)N[C@@H](Cc1c[nH]c2ccccc12)C(=O)N[C@@H](CCC(N)=O)C(=O)N[C@@H](Cc1c[nH]c2ccccc12)C(N)=O [RQIWRWWQW]

MIC [10]: 50 µM (≈ 86.3 µg/mL)
MIC [46]: 25 µM (≈ 43.2 µg/mL)
Structure (SMILES): CC[C@H](C)[C@H](NC(=O)[C@H](CCC(N)=O)NC(=O)[C@@H](N)CCCN=C(N)N)C(=O)N[C@@H](CCCN=C(N)N)C(=O)N[C@@H](CCCN=C(N)N)C(=O)N[C@@H](Cc1c[nH]c2ccccc12)C(=O)N[C@@H](Cc1c[nH]c2ccccc12)C(=O)N[C@@H](CCC(N)=O)C(=O)N[C@@H](Cc1c[nH]c2ccccc12)C(=O)N[C@@H](CCCN=C(N)N)C(=O)N[C@@H](CCCN=C(N)N)C(N)=O [RQIRRWWQWRR]
